Earlier results on 1 substance are cited in US10155050B2, “Cross-linked star-shaped self-assembled polypeptides and its use as carriers in biomedical applications” (CENTRO DE INVESTIGACION PRINCIPE FELIPE, priority 2015, dated 2018).

For the series the following is noted: FVB mice.

Take inulin: the renal clearance value entry is “around 20 mL/h”.
